Measurements published in paper PMC6983213, “Combining Chalcones with Donepezil to Inhibit Both Cholinesterases and Aβ Fibril Assembly” (Molecules, 2019).
“And” between values parts separate entries of the source, which are not always exact repeats. Identical values can stand only once. Like-named read-outs stand apart in the source and are kept apart here.

What was measured:
[1] = biological target: EfBChE (BChE from Equus ferus) (Equus caballus, UniProt P81908); test: biochemical; type: biochemical; settings: Ellman's method, pH 8.0, 25 °C, triplicate, ± SDEV; read-out: Inhibition (IC50) of EfBChE
Sequence of EfBChE (BChE from Equus ferus) (P81908 whole entry): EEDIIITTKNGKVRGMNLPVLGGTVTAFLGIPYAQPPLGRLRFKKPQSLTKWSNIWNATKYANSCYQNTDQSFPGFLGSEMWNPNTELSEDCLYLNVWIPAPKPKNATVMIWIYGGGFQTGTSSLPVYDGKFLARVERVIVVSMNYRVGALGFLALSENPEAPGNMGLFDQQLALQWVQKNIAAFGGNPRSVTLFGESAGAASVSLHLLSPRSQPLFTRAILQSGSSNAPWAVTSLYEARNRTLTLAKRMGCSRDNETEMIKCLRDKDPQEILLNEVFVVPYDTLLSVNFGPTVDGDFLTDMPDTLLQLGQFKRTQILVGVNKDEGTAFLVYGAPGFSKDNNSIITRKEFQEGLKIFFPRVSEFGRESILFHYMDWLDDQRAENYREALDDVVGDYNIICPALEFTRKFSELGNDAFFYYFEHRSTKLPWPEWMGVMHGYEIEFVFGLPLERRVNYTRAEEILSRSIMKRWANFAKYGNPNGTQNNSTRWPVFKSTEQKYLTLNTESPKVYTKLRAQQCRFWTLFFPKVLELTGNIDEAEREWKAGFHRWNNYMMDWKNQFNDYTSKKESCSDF
Method: (§1) The ChE inhibition assays were performed as previously described. The 1,3- and 1,4-chalcone-donepezil hybrids (0.1 nM to 100 μM) were dissolved in sodium phosphate buffer ((100 μL), 0.1 M, pH 8.0). […] All assays were performed in triplicate. The data was plotted as a sigmoidal curve and IC50 values were calculated using SigmaPlot 14.0 (Systat Software, San Jose, CA, USA).

[2] = biological target: T1, N-biotinyl-Aβ(1–42) (bioAβ42) oligomer assembly (Homo sapiens, UniProt P05067); test: biochemical; settings: for bioAβ42 oligomer assembly inhibition (in words): 1.56 to 50 μM, alone or in 1:1 / 1:1:1 mixtures; for EC50: concentration range 50 to 1.56 μM, duplicate, n = 3 independent experiments, ± SDEV
T1 construct: N-biotinyl Aβ(1–42) (bioAβ42) was purchased from Anaspec; purchased Anaspec (Fremont, CA, USA) AS-23523-05
T1 sequence (P05067 672-713): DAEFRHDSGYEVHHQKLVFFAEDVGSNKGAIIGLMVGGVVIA
Method: We first examined the effect of the synthesized 1,3- and 1,4-chalcone-donepezil hybrids 15a–15f and 16a–16f on the assembly of N-biotinyl-Aβ(1–42) (bioAβ42) monomers into oligomers. We quantified the assembly of bioAβ42 into soluble oligomers by using an ELISA assay in which the soluble oligomers were captured on NeutrAvidin^TM-coated ELISA plates and detected with streptavidin-horseradish peroxidase and colorimetric readout (Figure 3).
The plates were then stored in their blocked form at 4 °C prior to use for the oligomer assembly and dissociation assays.
The assembly of bioAβ42 into soluble oligomers was quantified with an ELISA assay in which the soluble oligomers were captured with the NeutrAvidin^TM coating the ELISA plates. The bound oligomers were detected with streptavidin-horseradish peroxidase (SA-HRP). […] Below, please find the details of the three steps (Steps 1–3) used for the oligomer assembly assay.
Step 1: Preparation of monomeric bioAβ42. For a low background, it was essential to rigorously pretreat the bioAβ42 peptide to convert (disaggregate) the multimeric species that form upon storage in the solid state, or even frozen in 1,1,1,3,3,3-hexafluoroisopropanol (HFIP) to monomers. The required amount of stock bioAβ42 peptide (0.5 mg dissolved at 1 mg/mL in HFIP) was pipetted into a polypropylene microfuge tube, dried to a thin film under a gentle air or N2 stream, and then disaggregated for 10 min at rt in neat trifluoroacetic acid (TFA). After removal of the TFA by drying with an air or N2 stream, DMSO was added to produce a 2.3 μg/mL (50×) stock solution.
Step 2: Assembly of bioAβ42 oligomers. 2 μL of disaggregated monomeric 50× bioAβ42 peptide in DMSO (prepared in Step 1) was pipetted into the bottom of each well of a polypropylene 96-well plate. […] The 96-well plate was sealed and incubated at rt for 30 min without shaking. The bioAβ42 oligomer assembly was stopped by adding 50 μL of 0.3% Tween 20 v/v in distilled H2O.
Step 3: Measurement of bioAβ42 oligomers. […] The 96-well plate was then sealed and incubated for 2 h while shaking at 150 rpm at rt. […] The plate was sealed and incubated for 1 h while shaking at 150 rpm at rt. The plate was washed as previously described, and 100 μL/well of HRP substrate (i.e., 1 mM:0.07 mM/tetramethylbenzidine:H2O2) in 0.2 M citrate buffer, pH 4.0 was added. The plate was incubated at rt for 5 to 10 min and the reaction was stopped by the addition of 100 μL/well of 1% v/v H2SO4. The absorbance of each well was read at 450 nm with a BioTek HT Synergy plate reader.
The effects of various chalcones, donepezil, donepezil analogue, and 1,3-chalcone-donepezil hybrids were tested for their ability to inhibit the bioAβ42 oligomer assembly and dissociation either alone or in combination with each other. The experiments were performed as described in the biotinyl-Aβ(1–42) (bioAβ42) oligomer assembly and dissociation assays section.

[3] = biological target: EeAChE (AChE from Electrophorus electricus) (Electrophorus electricus, UniProt O42275); test: biochemical; settings: for IC50: Ellman's method, pH 8.0, 25 °C, triplicate, ± SDEV, read-out: Inhibition (IC50) of EeAChE; for selectivity index (SI): based on IC50 values against EeAChE and EfBChE
Sequence of EeAChE (AChE from Electrophorus electricus) (O42275 24-633): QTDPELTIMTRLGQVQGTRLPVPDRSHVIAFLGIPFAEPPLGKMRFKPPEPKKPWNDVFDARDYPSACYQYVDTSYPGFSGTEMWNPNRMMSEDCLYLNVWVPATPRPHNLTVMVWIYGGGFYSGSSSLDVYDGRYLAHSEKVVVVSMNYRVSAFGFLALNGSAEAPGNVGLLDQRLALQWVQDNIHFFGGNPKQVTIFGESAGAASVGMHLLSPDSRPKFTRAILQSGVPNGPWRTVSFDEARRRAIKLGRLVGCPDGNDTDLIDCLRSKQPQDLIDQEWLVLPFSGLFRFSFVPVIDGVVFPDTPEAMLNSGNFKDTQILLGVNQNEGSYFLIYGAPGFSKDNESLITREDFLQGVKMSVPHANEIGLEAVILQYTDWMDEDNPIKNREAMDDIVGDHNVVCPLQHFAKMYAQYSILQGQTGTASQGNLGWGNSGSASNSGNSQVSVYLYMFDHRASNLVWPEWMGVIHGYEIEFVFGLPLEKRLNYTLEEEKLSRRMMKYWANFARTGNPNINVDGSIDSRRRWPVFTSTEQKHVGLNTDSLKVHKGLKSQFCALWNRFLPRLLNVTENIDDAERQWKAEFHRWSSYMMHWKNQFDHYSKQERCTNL
Method: as §1

F40 = Aβ(1–40) fibrils = biological target: T2, F40 = Aβ(1–40) fibrils (Homo sapiens, UniProt P05067); test: 3H-PIB binding competition/titration, Aβ(1–40) fibrils; settings: compounds at 10 μM (titration 10 to 0.03 μM); 1.2 nM 3H-PIB
T2 construct: lyophilized NH4OH-treated Aβ(1–40) (cat # A-1157-02); purchased rPeptide (Watkinsville, GA, USA) A-1157-02
T2 sequence (P05067 672-711): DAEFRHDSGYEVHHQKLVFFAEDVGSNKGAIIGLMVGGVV
Method: (§2) Prior to being transferred to screw-top polypropylene vials and being stored at −75 °C, these 1 mg/mL fibril suspensions were further diluted with an equal volume of the buffer solution.
(§3) The plates were sealed and incubated for 3 h at 22 °C, without shaking, and transferred to a 96-well Millipore Multiscreen HTS Hi Flow FB (GF/B) filter plate, and filtered with a multi-well plate vacuum manifold (Millipore Corporation, Bedford, MA, USA). […] Specific binding of ^3H-PIB was determined by subtracting the non-specific binding determined in the presence of 1 μM BTA-1.
(§4) The titration of compounds with ^3H-PIB bound to Aβ(1–40) and Aβ(1–42) fibrils and AD brain extract (ADPBC) were performed to further determine the competition of our compounds for the ^3H-PIB binding site of the AD brain. The experiments were performed as described in the ^3H-PIB binding assays of Section 3.4.3 with the use of a concentration range of 10 to 0.03 μM for the compounds tested.

F42 = Aβ(1–42) fibrils = biological target: T3, F42 = Aβ(1–42) fibrils (Homo sapiens, UniProt P05067); test: 3H-PIB binding competition/titration, Aβ(1–42) fibrils; settings: compounds at 10 μM (titration 10 to 0.03 μM); 1.2 nM 3H-PIB
T3 construct: Aβ(1–42) (cat # A-1167-02) purchased from rPeptide; purchased rPeptide (Watkinsville, GA, USA) A-1167-02
T3 sequence (P05067 672-713): as the sequence (P05067 672-713) above
Method: as §2, §3, §4

[4] = tested on: ADPBC (Alzheimer's disease PIB binding complex); test: 3H-PIB binding competition/titration, ADPBC; design: species or system Human; settings: compounds at 10 μM (titration 10 to 0.03 μM); 1.2 nM 3H-PIB
Method: Human AD brain frontal cortical tissue (from the Sanders-Brown Center on Aging Alzheimer’s Disease Center Brain Bank at the University of Kentucky) was processed as follows.
as §3, §4

[5] = read-out: EC50 against bioAβ42 oligomer assembly

| Structure (SMILES) | IC50 [1] [nM] | bioAβ42 oligomer assembly inhibition (in words) [2] | EC50 [2, 5] | IC50 [3] [nM] | selectivity index (SI) [3] | displacement of 3H-PIB from F40 (in words) (F40 = Aβ(1–40) fibrils) | displacement of 3H-PIB from F42 (in words) (F42 = Aβ(1–42) fibrils) | EC50 ([2]; EC50 against bioAβ42 oligomer assembly) [nM] | displacement of 3H-PIB from ADPBC (in words) [4] |
| --- | --- | --- | --- | --- | --- | --- | --- | --- | --- |
| COc1cc2c(cc1OCCCCCCOc1cccc(C(=O)/C=C/c3ccc(N(C)C)cc3)c1)C(=O)C(CC1CCN(Cc3ccccc3)CC1)C2 (centres unmarked) [15c, (E)-2-((1-Benzylpiperidin-4-Yl)Methyl)-6-((6-(3-(3-(4-(Dimethylamino)Phenyl)Acryloyl)Phenoxy)Hexyl)Oxy)-5-Methoxy-2,3-Dihydro-1H-Inden-1-One] | ~4000 | better inhibition of bioAβ42 oligomer assembly | 8670 ± 150 nM | 1220 ± 180 | ≈3.3 |  |  |  |  |
| COc1cc2c(cc1OCCCCCCCCOc1cccc(C(=O)/C=C/c3ccc(N(C)C)cc3)c1)C(=O)C(CC1CCN(Cc3ccccc3)CC1)C2 (centres unmarked) [15d, (E)-2-((1-Benzylpiperidin-4-Yl)Methyl)-6-((8-(3-(3-(4-(Dimethylamino)Phenyl)Acryloyl)Phenoxy)Octyl)Oxy)-5-Methoxy-2,3-Dihydro-1H-Inden-1-One] | ~2000 | better inhibition of bioAβ42 oligomer assembly | 9670 ± 1150 nM | 1220 ± 130 | ≈1.6 |  |  |  |  |
| COc1cc2c(cc1OCCCCCCCCCCOc1cccc(C(=O)/C=C/c3ccc(N(C)C)cc3)c1)C(=O)C(CC1CCN(Cc3ccccc3)CC1)C2 (centres unmarked) [15e, (E)-2-((1-Benzylpiperidin-4-Yl)Methyl)-6-((10-(3-(3-(4-(Dimethylamino)Phenyl)Acryloyl)Phenoxy)Decyl)Oxy)-5-Methoxy-2,3-Dihydro-1H-Inden-1-One] | ~10000 | did not prevent bioAβ42 oligomerization | 31700 nM and > 12000 nM | 1820 ± 450 | ≈5.5 |  |  |  |  |
| COc1cc2c(cc1OCCCCCCCCCCCCOc1cccc(C(=O)/C=C/c3ccc(N(C)C)cc3)c1)C(=O)C(CC1CCN(Cc3ccccc3)CC1)C2 (centres unmarked) [15f, (E)-2-((1-Benzylpiperidin-4-Yl)Methyl)-6-((12-(3-(3-(4-(Dimethylamino)Phenyl)Acryloyl)Phenoxy)Dodecyl)Oxy)-5-Methoxy-2,3-Dihydro-1H-Inden-1-One] | > 100000 | did not prevent bioAβ42 oligomerization | 45300 nM and > 12000 nM | 1670 ± 800 | >60 |  |  |  |  |
| COc1cc2c(cc1OCCOc1ccc(C(=O)/C=C/c3ccc(N(C)C)cc3)cc1)C(=O)C(CC1CCN(Cc3ccccc3)CC1)C2 (centres unmarked) [16a, (E)-2-((1-Benzylpiperidin-4-Yl)Methyl)-6-(2-(4-(3-(4-(Dimethylamino)Phenyl)Acryloyl)Phenoxy)Ethoxy)-5-Methoxy-2,3-Dihydro-1H-Inden-1-One] | ~100 | better inhibition of bioAβ42 oligomer assembly |  | 70 ± 10 | ≈1.4 | better affinity for F40 and F42 than 16b, 16c, 16d, 16e, and 16f | better affinity for F40 and F42 than 16b, 16c, 16d, 16e, and 16f | 9370 ± 2100 |  |
| COc1cc2c(cc1OCCCCOc1ccc(C(=O)/C=C/c3ccc(N(C)C)cc3)cc1)C(=O)C(CC1CCN(Cc3ccccc3)CC1)C2 (centres unmarked) [16b, (E)-2-((1-Benzylpiperidin-4-Yl)Methyl)-6-(4-(4-(3-(4-(Dimethylamino)Phenyl)Acryloyl)Phenoxy)Butoxy)-5-Methoxy-2,3-Dihydro-1H-Inden-1-One] | ~500 | better inhibition of bioAβ42 oligomer assembly | 2000 ± 200 nM | 140 ± 20 | ≈3.6 |  |  |  |  |
| COc1cc2c(cc1OCCCCCCOc1ccc(C(=O)/C=C/c3ccc(N(C)C)cc3)cc1)C(=O)C(CC1CCN(Cc3ccccc3)CC1)C2 (centres unmarked) [16c, (E)-2-((1-Benzylpiperidin-4-Yl)Methyl)-6-((6-(4-(3-(4-(Dimethylamino)Phenyl)Acryloyl)Phenoxy)Hexyl)Oxy)-5-Methoxy-2,3-Dihydro-1H-Inden-1-One] | ~600 | better inhibition of bioAβ42 oligomer assembly | 2600 ± 460 nM | ~500 | ≈1.2 |  |  |  |  |
| COc1cc2c(cc1OCCCCCCCCOc1ccc(C(=O)/C=C/c3ccc(N(C)C)cc3)cc1)C(=O)C(CC1CCN(Cc3ccccc3)CC1)C2 (centres unmarked) [16d, (E)-2-((1-Benzylpiperidin-4-Yl)Methyl)-6-((8-(4-(3-(4-(Dimethylamino)Phenyl)Acryloyl)Phenoxy)Octyl)Oxy)-5-Methoxy-2,3-Dihydro-1H-Inden-1-One] | ~1000 | better inhibition of bioAβ42 oligomer assembly | 4130 ± 150 nM | 520 ± 60 | ≈1.9 |  |  |  |  |
| COc1cc2c(cc1OCCCCCCCCCCOc1ccc(C(=O)/C=C/c3ccc(N(C)C)cc3)cc1)C(=O)C(CC1CCN(Cc3ccccc3)CC1)C2 (centres unmarked) [16e, (E)-2-((1-Benzylpiperidin-4-Yl)Methyl)-6-((10-(4-(3-(4-(Dimethylamino)Phenyl)Acryloyl)Phenoxy)Decyl)Oxy)-5-Methoxy-2,3-Dihydro-1H-Inden-1-One] | ~5000 | did not prevent bioAβ42 oligomerization | 9730 ± 550 nM | 1380 ± 180 |  |  |  |  | ADPBC affinity comparable to that of 16a |
| COc1cc2c(cc1OCCCCCCCCCCCCOc1ccc(C(=O)/C=C/c3ccc(N(C)C)cc3)cc1)C(=O)C(CC1CCN(Cc3ccccc3)CC1)C2 (centres unmarked) [16f, (E)-2-((1-Benzylpiperidin-4-Yl)Methyl)-6-((12-(4-(3-(4-(Dimethylamino)Phenyl)Acryloyl)Phenoxy)Dodecyl)Oxy)-5-Methoxy-2,3-Dihydro-1H-Inden-1-One] | > 100000 | did not prevent bioAβ42 oligomerization | 24100 nM and > 12000 nM | > 100000 |  |  |  |  | ADPBC affinity comparable to that of 16a |
| CN(C)c1ccc(/C=C/C(=O)c2ccc(O)cc2)cc1 [compound 6, (E)-3-(4-(Dimethylamino)Phenyl)-1-(4-Hydroxyphenyl)Prop-2-En-1-One] |  |  | > 50000 nM |  |  |  |  |  |  |
